The supplement of paper PMC10307832

How the values were obtained:
Assay in all cases: relative viability (nuclei count vs DMSO), 5 days (fraction); higher = more cells survive
Zosuquidar + Dasatinib = compound: O[C@@H](COc1cccc2ncccc12)CN1CCN([C@@H]2c3ccccc3[C@@H]3[C@H](c4ccccc42)C3(F)F)CC1 [Zosuquidar] + Cc1nc(Nc2ncc(C(=O)Nc3c(C)cccc3Cl)s2)cc(N2CCN(CCO)CC2)n1 [Dasatinib] (partner 0.075 µM)
In short: (§1)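 Lung cancer cell lines were pin-tool dosed in 1536-well plates on the day after seeding, with either a lone drug or a fixed anchor-drug dose plus five library-drug doses (not always all listed) in √10 steps. Nuclei were counted on 4× images after 5 days. Relative viability is the ratio of treated-well to vehicle-well nuclei counts, with each value a median of duplicate plates.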

Cabozantinib + Foretinib = compound: COc1cc2nccc(Oc3ccc(NC(=O)C4(C(=O)Nc5ccc(F)cc5)CC4)cc3)c2cc1OC [Cabozantinib] + COc1cc2c(Oc3ccc(NC(=O)C4(C(=O)Nc5ccc(F)cc5)CC4)cc3F)ccnc2cc1OCCCN1CCOCC1 [Foretinib] (partner 0.25 µM)
In short: as §1

[1] = compound: COc1cc2nccc(Oc3ccc(NC(=O)C4(C(=O)Nc5ccc(F)cc5)CC4)cc3)c2cc1OC [Cabozantinib] + Nc1nc2[nH]cc(CCc3ccc(C(=O)N[C@@H](CCC(=O)O)C(=O)O)cc3)c2c(=O)[nH]1 [Pemetrexed] (partner 0.2 µM)
In short: as §1

Zosuquidar + Pemetrexed = compound: O[C@@H](COc1cccc2ncccc12)CN1CCN([C@@H]2c3ccccc3[C@@H]3[C@H](c4ccccc42)C3(F)F)CC1 [Zosuquidar] + Nc1nc2[nH]cc(CCc3ccc(C(=O)N[C@@H](CCC(=O)O)C(=O)O)cc3)c2c(=O)[nH]1 [Pemetrexed] (partner 0.2 µM)
In short: as §1

Cell Line	relative viability (Zosuquidar + Dasatinib; first compound 0.01 µM)	relative viability (Zosuquidar + Dasatinib; first compound 0.03162 µM)	relative viability (Zosuquidar + Dasatinib; first compound 0.1 µM)	relative viability (Zosuquidar + Dasatinib; first compound 0.3162 µM)	relative viability (Zosuquidar + Dasatinib; first compound 1 µM)	relative viability (Cabozantinib + Foretinib; first compound 0.02 µM)	relative viability (Cabozantinib + Foretinib; first compound 0.06325 µM)	relative viability (Cabozantinib + Foretinib; first compound 0.2 µM)	relative viability (Cabozantinib + Foretinib; first compound 0.6325 µM)	relative viability (Cabozantinib + Foretinib; first compound 2 µM)	relative viability ([1]; first compound 0.02 µM)	relative viability ([1]; first compound 0.06325 µM)	relative viability ([1]; first compound 0.2 µM)	relative viability ([1]; first compound 0.6325 µM)	relative viability ([1]; first compound 2 µM)	relative viability (Zosuquidar + Pemetrexed; first compound 0.01 µM)	relative viability (Zosuquidar + Pemetrexed; first compound 0.03162 µM)	relative viability (Zosuquidar + Pemetrexed; first compound 0.1 µM)	relative viability (Zosuquidar + Pemetrexed; first compound 0.3162 µM)	relative viability (Zosuquidar + Pemetrexed; first compound 1 µM)
NCI-H441	0.521	0.606	0.574	0.683	0.718	1.25	0.989	0.986	1.18	1.18	0.243	0.237	0.288	0.229	0.235	0.29	0.286	0.249	0.23	0.268
NCI-H460	0.428	0.364	0.453	0.855	0.485	1.03	1.04	0.93	1	1.07	0.0695	0.0609	0.0626	0.0622	0.0696	0.0576	0.0545	0.0685	0.0617	0.0615
NCI-H520	0.224	0.156	–	0.254	0.189	0.756	0.756	0.778	0.804	0.889	0.625	0.747	0.667	0.63	0.552	0.742	0.723	0.788	0.85	0.899
NCI-H596	0.584	–	0.715	0.623	0.618	0.89	1.09	0.9	0.906	0.777	0.485	0.525	0.487	0.52	0.54	0.456	0.482	0.51	0.507	0.544
NCI-H647	0.168	0.121	0.137	0.229	0.163	1.23	1.1	1.1	1.14	0.981	0.165	0.192	0.162	0.149	0.133	0.188	0.177	0.178	0.168	0.139
NCI-H650	0.442	0.344	0.373	0.517	0.455	–	1.03	1.06	0.999	0.984	0.792	1.07	0.964	0.941	0.916	0.764	0.757	0.834	1.18	0.921
NCI-H661	0.812	0.756	0.922	1.03	0.865	0.985	1.04	1.01	1.02	1.09	0.959	0.941	0.981	0.939	1.07	0.914	0.902	0.846	0.928	0.851
NCI-H838	0.321	0.26	–	0.336	0.35	1.13	1.08	1.04	1.02	1.01	0.276	0.263	0.234	0.288	0.244	0.239	0.236	0.254	0.251	0.268
NCI-H1355	0.681	0.726	0.623	0.85	0.711	1.08	1.1	1.03	1.08	0.949	1.05	1.12	1.04	1.07	1.06	1.01	1	0.916	1.11	1.03
NCI-H1395	0.404	0.378	0.307	0.406	0.431	0.93	1.17	1.07	1.06	0.932	0.699	1.03	0.924	0.714	0.824	0.718	0.983	–	1	0.811
NCI-H1437	0.404	0.398	0.457	0.715	0.346	1.29	1.37	1.29	1.27	1.21	0.307	0.35	0.316	0.307	0.256	0.331	0.311	0.303	0.296	0.337
NCI-H1563	0.435	0.47	0.51	0.459	0.454	1.02	0.907	0.953	0.912	0.893	0.645	0.869	0.984	0.684	0.802	0.623	0.786	0.679	0.729	0.743
NCI-H1650	0.298	0.29	0.284	0.338	0.314	1.31	1.48	1.02	1.27	0.978	0.441	0.435	0.337	0.355	0.374	0.378	0.373	0.327	0.479	0.401
NCI-H1651	0.357	0.324	0.463	0.356	0.381	1	0.739	1.05	0.875	0.783	0.498	0.732	0.588	0.497	0.544	0.55	0.653	0.425	0.533	0.644
NCI-H1666	0.785	0.818	0.869	0.9	0.761	1.04	1.06	0.99	0.949	0.981	0.9	0.902	0.873	0.899	0.875	0.807	0.855	0.741	0.92	0.909
NCI-H1734	0.41	0.408	0.455	0.571	0.531	0.916	0.864	0.878	0.858	0.769	0.396	0.435	0.413	0.445	0.397	0.366	0.382	0.395	0.422	0.447

Cell Line	relative viability (Zosuquidar + Dasatinib; first compound 0.01 µM)	relative viability (Zosuquidar + Dasatinib; first compound 0.03162 µM)	relative viability (Zosuquidar + Dasatinib; first compound 0.1 µM)	relative viability (Zosuquidar + Dasatinib; first compound 0.3162 µM)	relative viability (Zosuquidar + Dasatinib; first compound 1 µM)	relative viability (Cabozantinib + Foretinib; first compound 0.02 µM)	relative viability (Cabozantinib + Foretinib; first compound 0.06325 µM)	relative viability (Cabozantinib + Foretinib; first compound 0.2 µM)	relative viability (Cabozantinib + Foretinib; first compound 0.6325 µM)	relative viability (Cabozantinib + Foretinib; first compound 2 µM)	relative viability ([1]; first compound 0.02 µM)	relative viability ([1]; first compound 0.06325 µM)	relative viability ([1]; first compound 0.2 µM)	relative viability ([1]; first compound 0.6325 µM)	relative viability ([1]; first compound 2 µM)	relative viability (Zosuquidar + Pemetrexed; first compound 0.01 µM)	relative viability (Zosuquidar + Pemetrexed; first compound 0.03162 µM)	relative viability (Zosuquidar + Pemetrexed; first compound 0.1 µM)	relative viability (Zosuquidar + Pemetrexed; first compound 0.3162 µM)	relative viability (Zosuquidar + Pemetrexed; first compound 1 µM)
NCI-H1755	0.401	0.383	0.375	0.451	0.415	0.911	1.01	0.92	0.917	0.856	0.449	0.415	0.436	0.425	0.422	0.448	0.428	0.426	0.426	0.452
NCI-H1793	0.375	0.3	–	0.489	0.488	0.738	1.07	0.645	0.678	0.617	0.865	0.917	–	0.73	0.588	0.898	–	–	1.01	0.832
NCI-H1915	0.311	0.305	0.308	0.337	0.283	1.17	1.14	1.08	1.07	1.13	0.532	0.51	0.507	0.505	0.459	0.518	0.527	0.413	0.489	0.474
NCI-H1944	0.206	0.159	0.187	0.244	0.229	1.04	0.938	0.9	0.895	0.867	0.601	0.645	0.631	0.637	0.696	0.583	0.585	0.604	0.678	0.665
NCI-H1975	0.335	0.313	0.433	0.374	0.352	1.04	1.01	1.1	0.89	0.849	0.318	0.273	0.288	0.263	0.289	0.279	0.299	0.293	0.272	0.29
NCI-H1993	0.66	0.507	0.501	0.564	0.654	0.807	0.74	0.649	0.745	0.735	0.486	0.507	0.484	0.561	0.662	0.578	0.624	–	0.642	0.636
NCI-H2009	0.281	0.174	0.244	0.331	0.284	1.24	1.26	1.19	1.28	1.29	1.08	1.07	1.02	1	1.08	1.04	1.04	1.01	0.902	1.06
NCI-H2023	0.46	0.436	0.557	0.532	0.674	0.917	1.2	1.05	0.956	0.896	0.199	0.272	0.175	0.23	0.146	0.224	0.233	0.212	0.302	0.297
NCI-H2085	0.247	0.234	0.19	0.243	0.228	0.765	1.05	0.982	1.05	0.855	0.9	0.974	0.737	0.866	0.744	0.953	0.697	–	0.956	0.904
NCI-H2087	0.773	–	0.668	0.91	0.919	1.17	1	1.3	1.2	0.967	0.612	0.711	0.614	0.752	0.665	0.597	0.667	0.62	0.643	0.637
NCI-H2126	0.581	0.599	–	0.639	0.61	–	1.36	1.22	1.06	1.17	0.59	0.666	0.689	0.658	0.704	0.677	0.625	0.51	0.697	0.737
NCI-H2170	0.464	0.661	0.636	0.767	0.58	1.01	0.999	1	0.949	0.974	0.28	0.264	0.247	0.274	0.311	0.283	0.263	0.263	0.269	0.255
NCI-H2228	0.507	0.573	0.612	0.621	0.551	1.08	1.26	0.932	0.794	0.672	0.348	0.305	0.338	0.283	0.276	0.359	0.302	0.315	0.324	0.361
NCI-H2342	0.275	0.312	0.327	0.313	0.299	1.09	1.16	1.08	1.06	0.799	0.711	0.828	0.83	0.86	0.729	0.682	0.785	0.649	0.899	0.818
NCI-H2347	0.321	0.384	0.253	0.309	0.351	0.842	0.916	1.28	1.11	1.05	0.422	0.481	0.429	0.442	0.371	0.425	0.34	0.413	0.432	0.483
NCI-H2405	0.208	0.174	0.208	0.228	0.215	1.01	1.04	1.05	1.05	1.01	0.818	1.13	1.08	1.09	1.02	1.08	0.914	0.956	1.2	0.23
